Test results as given in patent US20240158418A1 (C4 Therapeutics, Inc., priority 2021, published 2024).

What was measured:
pERK = experiment: Western blot NCI-H3255, Compound 1 with or without osimertinib: phospho-ERK; assay type: cell-based, human; details: NCI-H3255, six hours, 0-1,500 nM, presence and absence of 1,500 nM osimertinib
Description: The compound bearing solutions were formulated to achieve a 0.1% final concentration of DMSO. […] Antibodies used in western blot were purchased from the following vendors: EGFR-L858R specific antibody (CST 3197), pY1068 EGFR (CST 2234), pERK (CST 4370), ERK (CST 4695), vinculin (Millipore 05-386).

[1] = system: intracranial NCI-H1975-luciferase expressing tumors; experiment: NCI-H1975-luc intracranial tumor model (intracarotid artery injection): BLI, body weight, survival; assay type: in vivo, female BALB/c nude mice; details: intracranial model with intracarotid implantation, oral dosing
Procedure: Female BALB/c nude mice were inoculated by intracarotid injection with NCI-H1975-luc cells (1×10^5 in 100 μL PBS) for tumor development. Tumor growth was monitored using imaging analysis. Tumor-bearing mice were weighed and injected intraperitoneally with luciferin at a dose of 150 mg/kg and anesthetized with a mixture gas of oxygen and isoflurane. 10 minutes post luciferin injection, mice were imaged using IVIS Lumina III machine and total bioluminescence signal (BLI, photons/s) was measured in a region of interest (ROI). BLI from ROI were quantified and used as an indicator of tumor burden. Twenty days post tumor cell inoculation mice were randomized into groups of 6 with a mean BLI of 1.08×10^6 photons/s. Compound 1 was dosed orally (PO) twice a day at 50 mg/kg and was formulated in 20% PEG400+80% (25% SBECD, “sulfobutylether-β-cyclodextrin”) in double distilled H2Om which was also used as the vehicle control. Body weight and MTV were measured on a 2× weekly schedule. Survival data was also measured and is represented as median survival time±SEM.

[2] = target: T1, G1 to S Phase Transition 1 (GSPT1) (Homo sapiens, UniProt P15170); experiment: GSPT1 degradation, HiBiT-tagged GSPT1 in 293T cells; assay type: cell-based; details: 6 hours, up to 10 WV
T1 construct: Endogenous expression of GSPT1 in 293T cells was determined by addition of N-terminal HiBiT tag; host or cells: 293T (CRISPR-Cas9 HiBiT knock-in)
Procedure: Endogenous expression of GSPT1 in 293T cells was determined by addition of N-terminal HiBiT tag to the 293T cell line (ATCC CRL-3216) using CRISPR-Cas9. Briefly, test compound was added to 384-well plates at a top concentration of 10 μM with 11 points, half log titration in duplicates. 293T cells expressing HiBiT-tagged GSPT1 were seeded into the 384-well plates in DMEM medium containing 10% FBS at a cell density of 6000 cells per well. Cells treated in the absence of the test compound were the negative control and wells containing media only were the positive control. Following compound treatment, cells were incubated at 37° C. with 5% CO2 for 6 hr. HiBiT signal was determined using Nano-Glo™ HiBiT Lytic Assay System (Promega, N3050) and luminescence was acquired on EnVision™ Multilabel Reader (PerkinElmer, Santa Clara, CA, USA). % GSPT1 remaining was determined by normalizing the signal with positive and negative controls on the same microtiter plate. Data in FIG. 8 are expressed as the mean±SD. Curve fit and IC50 determination was performed by 4 parametric regression analysis.

EGFR L858R = EGFR L858R (Homo sapiens, UniProt P00533, L858R); experiment: KINOMEscan scanMAX, EGFR-L858R; assay type: binding; design: purchased Eurofins DiscoverX KINOMEscan scanMAX; host or cells: E. coli BL21-derived (T7 phage) or HEK-293; details: 100 nM
Procedure: Kinome-wide binding selectivity of CFT8919 was assessed via the KINOMEscan scanMAX assay at Eurofins DiscoverX (Freemont, CA, USA). Compound was tested at 100 nM against a diverse panel of 468 kinases. The size of circles was mapped onto the kinase phylogenetic tree utilizing DiscoverX TREEspot using <50% of % control as a cutoff.
For most assays, kinase-tagged T7 phage strains were grown in parallel in 24-well blocks in an E. coli host derived from the BL21 strain. E. coli were grown to log-phase and infected with T7 phage from a frozen stock (multiplicity of infection=0.4) and incubated with shaking at 32° C. until lysis (90-150 minutes). The lysates were centrifuged (6,000×g) and filtered (0.2 μm) to remove cell debris. The remaining kinases were produced in HEK-293 cells and subsequently tagged with DNA for qPCR detection. Streptavidin-coated magnetic beads were treated with biotinylated small molecule ligands for 30 minutes at room temperature to generate affinity resins for kinase assays. The liganded beads were blocked with excess biotin and washed with blocking buffer (SeaBlock (Pierce), 1% BSA, 0.05% Tween 20, 1 mM DTT) to remove unbound ligand and to reduce non-specific phage binding. […] Test compounds were prepared as 40× stocks in 100% DMSO and directly diluted into the assay. […] The kinase concentration in the eluates was measured by qPCR.

[3] = target: T2, Sal-like protein 4 (SALL4) (Homo sapiens, UniProt Q9UJQ4); experiment: SALL4 degradation, HiBiT-tagged SALL4 in KELLY cells; assay type: cell-based; details: 6 hours, up to 10 μM
T2 construct: Endogenous expression of SALL4 in KELLY cells was determined by addition of C-terminal HiBiT tag; host or cells: KELLY (CRISPR-Cas9 HiBiT knock-in)
Procedure: Specific studies were carried out to assess the ability of Compound 1 to degrade Sal-like protein 4 (SALL4), a protein implicated in the teratogenicity induced by the IMiD®s class of IKZF1/IKZF3 degraders including lenalidomide (Matyskiela et al., Crystal structure of the SALL4-pomalidomide-cereblon-DDB1 complex, Nature Structural and Molecular Biology, (2020) 27, 319-322). Endogenous expression of SALL4 in KELLY cells was determined by addition of C-terminal HiBiT tag to the KELLY cell line (DSMZ ACC355) using CRISPR-Cas9. Briefly, test compound was added to 384-well plates at a top concentration of 1 μM with 11 points, half log titration in duplicates. KELLY cells expressing HiBiT-tagged SALL4 were seeded into the 384-well plates in RPMI medium containing 10% FBS and 2 mM pyruvate at a cell density of 6000 cells per well. Cells treated in the absence of the test compound were the negative control and wells containing media only were the positive control. Following compound treatment, cells were incubated at 37° C. with 5% CO2 for 6 hr. HiBiT signal was determined using Nano-Glo™ HiBiT Lytic Assay System (Promega, N3050) and luminescence was acquired on EnVision™ Multilabel Reader (PerkinElmer, Santa Clara, CA, USA). % SALL4 remaining was determined by normalizing the signal with positive and negative controls on the same microtiter plate. Data in FIG. 7 are expressed as the mean±SD. […]

T1 sequence (Q96SW2 whole entry partner): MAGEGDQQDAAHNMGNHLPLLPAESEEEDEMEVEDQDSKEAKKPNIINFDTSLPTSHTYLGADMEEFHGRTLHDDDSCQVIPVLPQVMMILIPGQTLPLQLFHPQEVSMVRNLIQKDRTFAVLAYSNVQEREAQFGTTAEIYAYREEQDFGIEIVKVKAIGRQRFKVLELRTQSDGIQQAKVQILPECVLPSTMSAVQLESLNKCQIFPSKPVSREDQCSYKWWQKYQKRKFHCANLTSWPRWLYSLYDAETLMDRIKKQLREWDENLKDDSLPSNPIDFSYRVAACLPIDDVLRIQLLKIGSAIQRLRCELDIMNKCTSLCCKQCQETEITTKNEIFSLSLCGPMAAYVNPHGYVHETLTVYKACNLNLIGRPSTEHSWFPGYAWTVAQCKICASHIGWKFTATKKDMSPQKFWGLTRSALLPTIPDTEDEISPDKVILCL
T1 sequence (Q16531 whole entry partner): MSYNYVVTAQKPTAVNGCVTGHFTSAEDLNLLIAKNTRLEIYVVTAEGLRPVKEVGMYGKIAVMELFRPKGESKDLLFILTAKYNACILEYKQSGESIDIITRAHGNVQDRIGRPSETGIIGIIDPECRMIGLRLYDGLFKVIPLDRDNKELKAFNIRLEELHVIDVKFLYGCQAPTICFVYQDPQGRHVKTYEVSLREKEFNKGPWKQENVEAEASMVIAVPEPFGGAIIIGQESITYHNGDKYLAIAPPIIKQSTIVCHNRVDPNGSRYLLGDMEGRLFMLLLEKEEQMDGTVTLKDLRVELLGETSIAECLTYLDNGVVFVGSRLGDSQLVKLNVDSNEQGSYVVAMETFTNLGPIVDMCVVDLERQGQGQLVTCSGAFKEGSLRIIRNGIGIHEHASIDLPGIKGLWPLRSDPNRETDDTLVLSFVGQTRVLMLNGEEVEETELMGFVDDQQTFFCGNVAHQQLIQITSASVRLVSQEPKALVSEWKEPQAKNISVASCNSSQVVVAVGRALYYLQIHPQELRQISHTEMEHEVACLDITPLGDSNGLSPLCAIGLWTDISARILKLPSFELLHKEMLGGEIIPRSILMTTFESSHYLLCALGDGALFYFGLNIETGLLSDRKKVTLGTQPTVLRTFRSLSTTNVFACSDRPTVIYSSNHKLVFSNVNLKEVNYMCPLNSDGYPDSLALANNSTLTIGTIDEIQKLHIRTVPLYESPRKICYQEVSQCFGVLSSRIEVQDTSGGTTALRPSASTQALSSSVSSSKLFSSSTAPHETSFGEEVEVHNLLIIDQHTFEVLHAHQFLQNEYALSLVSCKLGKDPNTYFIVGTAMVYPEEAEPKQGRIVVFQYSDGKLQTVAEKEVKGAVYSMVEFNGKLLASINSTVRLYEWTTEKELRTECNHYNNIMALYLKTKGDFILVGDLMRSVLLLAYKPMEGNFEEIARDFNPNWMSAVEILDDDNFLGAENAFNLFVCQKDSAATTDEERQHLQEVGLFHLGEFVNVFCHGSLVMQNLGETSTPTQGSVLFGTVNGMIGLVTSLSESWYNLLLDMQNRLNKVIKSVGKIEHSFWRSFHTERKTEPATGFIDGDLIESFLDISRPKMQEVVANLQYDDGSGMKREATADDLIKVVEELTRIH
T1 sequence (P15170 whole entry): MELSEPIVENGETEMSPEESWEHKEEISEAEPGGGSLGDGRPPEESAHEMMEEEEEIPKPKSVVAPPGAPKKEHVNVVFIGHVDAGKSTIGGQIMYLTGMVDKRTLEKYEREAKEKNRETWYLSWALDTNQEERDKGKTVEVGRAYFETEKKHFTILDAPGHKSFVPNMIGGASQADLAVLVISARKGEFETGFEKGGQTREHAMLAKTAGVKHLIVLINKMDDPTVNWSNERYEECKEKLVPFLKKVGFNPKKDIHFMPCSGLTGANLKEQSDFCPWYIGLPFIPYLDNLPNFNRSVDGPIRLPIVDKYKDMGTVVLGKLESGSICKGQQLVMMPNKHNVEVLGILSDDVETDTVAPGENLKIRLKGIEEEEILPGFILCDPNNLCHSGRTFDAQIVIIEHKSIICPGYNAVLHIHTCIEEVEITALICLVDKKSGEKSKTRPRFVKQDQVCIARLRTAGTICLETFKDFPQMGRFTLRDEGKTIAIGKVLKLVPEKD
T2 sequence (Q96SW2 whole entry partner): as the sequence (Q96SW2 whole entry partner) above
T2 sequence (Q16531 whole entry partner): as the sequence (Q16531 whole entry partner) above
T2 sequence (Q9UJQ4 whole entry): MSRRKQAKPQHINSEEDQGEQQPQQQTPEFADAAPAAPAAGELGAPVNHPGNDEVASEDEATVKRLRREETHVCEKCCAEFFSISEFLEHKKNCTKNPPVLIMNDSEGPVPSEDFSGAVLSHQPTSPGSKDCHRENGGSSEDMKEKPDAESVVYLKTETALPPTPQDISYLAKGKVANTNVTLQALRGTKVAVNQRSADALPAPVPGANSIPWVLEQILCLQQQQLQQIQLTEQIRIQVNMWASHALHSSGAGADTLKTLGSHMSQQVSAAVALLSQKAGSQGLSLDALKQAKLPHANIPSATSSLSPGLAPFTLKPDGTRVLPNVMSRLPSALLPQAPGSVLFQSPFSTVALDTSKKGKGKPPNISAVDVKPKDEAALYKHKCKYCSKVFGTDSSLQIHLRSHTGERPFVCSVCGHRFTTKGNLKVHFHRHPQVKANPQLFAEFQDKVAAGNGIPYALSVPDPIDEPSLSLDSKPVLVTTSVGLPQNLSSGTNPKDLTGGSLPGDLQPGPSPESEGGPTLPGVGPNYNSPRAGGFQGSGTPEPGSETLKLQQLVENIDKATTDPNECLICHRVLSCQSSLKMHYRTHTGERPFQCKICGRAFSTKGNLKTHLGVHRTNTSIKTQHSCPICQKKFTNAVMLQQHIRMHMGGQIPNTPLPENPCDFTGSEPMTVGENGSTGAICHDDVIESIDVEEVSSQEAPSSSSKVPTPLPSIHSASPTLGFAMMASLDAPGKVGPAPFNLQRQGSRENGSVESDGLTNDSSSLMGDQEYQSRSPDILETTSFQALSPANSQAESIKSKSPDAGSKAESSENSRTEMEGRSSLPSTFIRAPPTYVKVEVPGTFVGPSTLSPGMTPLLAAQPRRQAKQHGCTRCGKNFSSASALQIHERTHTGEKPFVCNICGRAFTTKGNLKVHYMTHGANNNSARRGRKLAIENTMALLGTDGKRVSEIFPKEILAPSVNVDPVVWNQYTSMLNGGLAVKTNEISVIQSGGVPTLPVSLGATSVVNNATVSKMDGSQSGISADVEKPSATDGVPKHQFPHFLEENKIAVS
Sequence of EGFR L858R (P00533 25-1210 L858R): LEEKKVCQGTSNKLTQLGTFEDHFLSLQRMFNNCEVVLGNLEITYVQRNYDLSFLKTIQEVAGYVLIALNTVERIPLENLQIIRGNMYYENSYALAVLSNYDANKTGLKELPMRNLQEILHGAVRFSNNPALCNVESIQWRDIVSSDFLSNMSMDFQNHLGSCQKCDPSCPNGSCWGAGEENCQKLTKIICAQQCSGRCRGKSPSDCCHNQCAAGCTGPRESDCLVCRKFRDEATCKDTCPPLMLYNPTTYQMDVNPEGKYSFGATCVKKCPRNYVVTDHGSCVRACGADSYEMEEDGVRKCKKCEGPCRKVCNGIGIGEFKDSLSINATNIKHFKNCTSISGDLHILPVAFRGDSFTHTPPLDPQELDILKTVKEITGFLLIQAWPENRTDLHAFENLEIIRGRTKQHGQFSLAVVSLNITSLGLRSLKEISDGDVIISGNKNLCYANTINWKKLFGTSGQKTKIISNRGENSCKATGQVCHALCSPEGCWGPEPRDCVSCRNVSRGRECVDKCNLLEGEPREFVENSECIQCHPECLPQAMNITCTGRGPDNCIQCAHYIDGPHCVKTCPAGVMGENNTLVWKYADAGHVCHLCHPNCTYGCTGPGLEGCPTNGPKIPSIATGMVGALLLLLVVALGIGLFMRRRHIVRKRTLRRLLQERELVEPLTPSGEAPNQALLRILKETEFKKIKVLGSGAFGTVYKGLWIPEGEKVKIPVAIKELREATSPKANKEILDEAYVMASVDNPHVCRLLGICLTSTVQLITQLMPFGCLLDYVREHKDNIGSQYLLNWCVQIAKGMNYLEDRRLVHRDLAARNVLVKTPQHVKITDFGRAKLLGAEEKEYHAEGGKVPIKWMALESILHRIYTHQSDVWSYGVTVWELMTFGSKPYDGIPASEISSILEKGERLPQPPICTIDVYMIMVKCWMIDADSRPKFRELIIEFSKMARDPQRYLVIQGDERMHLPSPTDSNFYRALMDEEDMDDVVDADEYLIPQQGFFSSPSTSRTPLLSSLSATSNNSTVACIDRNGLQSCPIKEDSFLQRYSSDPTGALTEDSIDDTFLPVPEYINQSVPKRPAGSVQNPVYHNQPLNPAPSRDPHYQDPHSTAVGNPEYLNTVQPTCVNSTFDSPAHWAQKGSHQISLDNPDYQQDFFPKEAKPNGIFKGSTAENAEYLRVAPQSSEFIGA

## O=C1CC[C@H](Nc2ccc(N3CCC(O)(CC(=O)N4CC5(C4)CN(c4ccc(-c6cc(F)c7c(c6)C(=O)N(C(C(=O)Nc6nccs6)c6ncn8c6CCC8)C7)cc4)C5)CC3)c(F)c2)C(=O)N1 (stereo partly drawn) [Compound 1, 2-(6,7-dihydro-5H-pyrrolo[1,2-c]imidazol-1-yl)-2-[6-[4-[2-[2-[1-[4-[[(3S)-2,6-dioxo-3-piperidyl]amino]-2-fluoro-phenyl]-4-hydroxy-4-piperidyl]acetyl]-2,6-diazaspiro[3.3]heptan-6-yl]phenyl]-4-fluoro-1-oxo-isoindolin-2-yl]-N-thiazol-2-yl-acetamide]
pERK
  phospho-ERK inhibition (western blot): inhibited
[1]
  efficacy on NCI-H1975-luc BLI (tumor burden): tumor regression
[2]
  GSPT1 degradation (% GSPT1 remaining): no significant effect
EGFR L858R
  percent binding remaining: < 50%
[3]
  SALL4 degradation (% SALL4 remaining): no effect
